In ChEMBL document CHEMBL3046555, “Synthesis and Microbiological Evaluation of Novel [N-Acetyl-2,6-Diarylpiperidin-4-YL]-5-Spiro-4-Acetyl-2-(Acetylamino)-2-1,3,4-Thiadiazolines” (2004):
In brackets after ≈: the same amount, converted by molar mass. Activity calls are given as the source filed them. No cut-off for these calls is given here.

What was measured:
Candida [1] = test: Antifungal activity against Candida-51 after 72 to 96 hr by two-fold serial dilution method; format: functional
Pseudomonas aeruginosa [2] = test: Antibacterial activity against Pseudomonas aeruginosa after 24 hr by two-fold serial dilution method; format: functional
Cryptococcus neoformans [3] = test: Antifungal activity against Cryptococcus neoformans at 100 ug/ml after 72 to 96 hr by two-fold serial dilution method; format: functional, organism-based
Enterococcus faecalis [4] = test: Antibacterial activity against Enterococcus faecalis after 24 hr by two-fold serial dilution method; format: functional
Klebsiella pneumoniae [5] = test: Antibacterial activity against Klebsiella pneumoniae after 24 hr by two-fold serial dilution method; format: functional
Bacillus subtilis = test: Antibacterial activity against Bacillus subtilis after 24 hr by two-fold serial dilution method; format: functional
Candida [6] = test: Antifungal activity against Candida-6 after 72 to 96 hr by two-fold serial dilution method; format: functional
Escherichia coli = test: Antibacterial activity against Escherichia coli after 24 hr by two-fold serial dilution method; format: functional
Aspergillus niger = test: Antifungal activity against Aspergillus niger after 72 to 96 hr by two-fold serial dilution method; format: functional
Aspergillus flavus [7] = test: Antifungal activity against Aspergillus flavus after 72 to 96 hr by two-fold serial dilution method; format: functional
Cryptococcus neoformans [8] = test: Antifungal activity against Cryptococcus neoformans after 72 to 96 hr by two-fold serial dilution method; format: functional
Aspergillus flavus [9] = test: Antifungal activity against Aspergillus flavus at 100 ug/ml after 72 to 96 hr by two-fold serial dilution method; format: functional, organism-based
Candida [10] = test: Antifungal activity against Candida-51 at 100 ug/ml after 72 to 96 hr by two-fold serial dilution method; format: functional, organism-based
Candida [11] = test: Antifungal activity against Candida-6 at 100 ug/ml after 72 to 96 hr by two-fold serial dilution method; format: functional, organism-based
Pseudomonas aeruginosa [12] = test: Antibacterial activity against Pseudomonas aeruginosa at 100 ug/ml after 24 hr by two-fold serial dilution method; format: functional, organism-based
Klebsiella pneumoniae [13] = test: Antibacterial activity against Klebsiella pneumoniae at 100 ug/ml after 24 hr by two-fold serial dilution method; format: functional, organism-based
Enterococcus faecalis [14] = test: Antibacterial activity against Enterococcus faecalis at 100 ug/ml after 24 hr by two-fold serial dilution method; format: functional, organism-based

Structure (SMILES)	MIC (Candida [1]) [µg/mL]	MIC (Pseudomonas aeruginosa [2]) [µg/mL]	inhibition (Cryptococcus neoformans [3])	MIC (Enterococcus faecalis [4]) [µg/mL]	MIC (Klebsiella pneumoniae [5]) [µg/mL]	MIC (Bacillus subtilis) [µg/mL]	MIC (Candida [6]) [µg/mL]	MIC (Escherichia coli) [µg/mL]	MIC (Aspergillus niger) [µg/mL]	MIC (Aspergillus flavus [7]) [µg/mL]	MIC (Cryptococcus neoformans [8]) [µg/mL]	inhibition (Aspergillus flavus [9])	inhibition (Candida [10])	inhibition (Candida [11])	inhibition (Pseudomonas aeruginosa [12])	inhibition (Klebsiella pneumoniae [13])	inhibition (Enterococcus faecalis [14])
CC(=O)NC1=NN(C(C)=O)C2(CC(c3ccc(C)cc3)N(C(C)=O)C(c3ccc(C)cc3)C2C)S1 (stereo not given)	100 (≈ 203 µM)	50 (≈ 101 µM)	inactive	50 (≈ 101 µM)	25 (≈ 50.7 µM)	100 (≈ 203 µM)	50 (≈ 101 µM)	50 (≈ 101 µM)	50 (≈ 101 µM)	100 (≈ 203 µM)	–	–	–	–	–	–	–
C[C@@H]1[C@H](O)[C@@H](C)/C=C/C=C/C=C/C=C/C=C/C=C/C=C/[C@H](O[C@@H]2O[C@H](C)[C@@H](O)[C@H](N)[C@@H]2O)C[C@@H]2O[C@](O)(C[C@@H](O)C[C@@H](O)[C@H](O)CC[C@@H](O)C[C@@H](O)CC(=O)O[C@H]1C)C[C@H](O)[C@H]2C(=O)O [AMPHOTERICIN B]	25 (≈ 27.1 µM)	–	–	–	–	–	25 (≈ 27.1 µM)	–	50 (≈ 54.1 µM)	50 (≈ 54.1 µM)	25 (≈ 27.1 µM)	–	–	–	–	–	–
COc1ccc(C2CC3(SC(NC(C)=O)=NN3C(C)=O)C(C)C(c3ccc(OC)cc3)N2C(C)=O)cc1 (stereo not given)	25 (≈ 47.7 µM)	25 (≈ 47.7 µM)	–	25 (≈ 47.7 µM)	6.25 (≈ 11.9 µM)	25 (≈ 47.7 µM)	50 (≈ 95.3 µM)	25 (≈ 47.7 µM)	25 (≈ 47.7 µM)	25 (≈ 47.7 µM)	6.25 (≈ 11.9 µM)	–	–	–	–	–	–
CC(=O)NC1=NN(C(C)=O)C2(CC(c3ccc(Cl)cc3)N(C(C)=O)C(c3ccc(Cl)cc3)C2C)S1 (stereo not given)	25 (≈ 46.9 µM)	25 (≈ 46.9 µM)	–	12.5 (≈ 23.4 µM)	12.5 (≈ 23.4 µM)	50 (≈ 93.7 µM)	25 (≈ 46.9 µM)	25 (≈ 46.9 µM)	25 (≈ 46.9 µM)	50 (≈ 93.7 µM)	12.5 (≈ 23.4 µM)	–	–	–	–	–	–
CC1(C)S[C@@H]2[C@H](NC(=O)Cc3ccccc3)C(=O)N2[C@H]1C(=O)O [PENICILLIN G]	–	50 (≈ 150 µM)	–	12.5 (≈ 37.4 µM)	12.5 (≈ 37.4 µM)	25 (≈ 74.8 µM)	–	50 (≈ 150 µM)	–	–	–	–	–	–	–	–	–
CC(=O)NC1=NN(C(C)=O)C2(CC(c3ccc(C)cc3)N(C(C)=O)C(c3ccc(C)cc3)C2)S1 (stereo not given)	100 (≈ 209 µM)	100 (≈ 209 µM)	inactive	100 (≈ 209 µM)	100 (≈ 209 µM)	100 (≈ 209 µM)	50 (≈ 104 µM)	100 (≈ 209 µM)	50 (≈ 104 µM)	–	–	inactive	–	–	–	–	–
CN[C@@H]1[C@H](O[C@H]2[C@H](O[C@H]3[C@H](O)[C@@H](O)[C@H](N=C(N)N)[C@@H](O)[C@@H]3N=C(N)N)O[C@@H](C)[C@]2(O)C=O)O[C@@H](CO)[C@H](O)[C@H]1O [STREPTOMYCIN]	–	25 (≈ 43 µM)	–	50 (≈ 86 µM)	25 (≈ 43 µM)	12.5 (≈ 21.5 µM)	–	12.5 (≈ 21.5 µM)	–	–	–	–	–	–	–	–	–
COc1ccc(C2CC3(CC(c4ccc(OC)cc4)N2C(C)=O)SC(NC(C)=O)=NN3C(C)=O)cc1 (stereo not given)	50 (≈ 97.9 µM)	50 (≈ 97.9 µM)	–	25 (≈ 49 µM)	12.5 (≈ 24.5 µM)	25 (≈ 49 µM)	25 (≈ 49 µM)	25 (≈ 49 µM)	25 (≈ 49 µM)	25 (≈ 49 µM)	12.5 (≈ 24.5 µM)	–	–	–	–	–	–
CC(=O)NC1=NN(C(C)=O)C2(CC(c3ccccc3)N(C(C)=O)C(c3ccccc3)C2C)S1 (stereo not given)	–	–	inactive	100 (≈ 215 µM)	–	100 (≈ 215 µM)	–	50 (≈ 108 µM)	50 (≈ 108 µM)	100 (≈ 215 µM)	–	–	inactive	inactive	inactive	inactive	–
CC(=O)NC1=NN(C(C)=O)C2(CC(c3ccc(Cl)cc3)N(C(C)=O)C(c3ccc(Cl)cc3)C2)S1 (stereo not given)	50 (≈ 96.3 µM)	25 (≈ 48.1 µM)	–	25 (≈ 48.1 µM)	25 (≈ 48.1 µM)	50 (≈ 96.3 µM)	50 (≈ 96.3 µM)	50 (≈ 96.3 µM)	25 (≈ 48.1 µM)	50 (≈ 96.3 µM)	25 (≈ 48.1 µM)	–	–	–	–	–	–
CC(=O)NC1=NN(C(C)=O)C2(CC(c3ccccc3)N(C(C)=O)C(c3ccccc3)C2)S1 (stereo not given)	–	–	inactive	–	–	100 (≈ 222 µM)	–	50 (≈ 111 µM)	100 (≈ 222 µM)	–	–	inactive	inactive	inactive	inactive	inactive	inactive
